Experimental data as given in paper PMC5200956 (ChemMedChem, 2016).
Read-outs that look alike come from different tables or passages of the source.

Experiments:
T. gondii (tachyzoites) [1] = assay: T. gondii tachyzoites growth assay; format: cell-based, Toxoplasma gondii; settings: means ± SD, n = 3
T. cruzi (amastigotes) [2] = assay: T. cruzi amastigote growth assay; format: cell-based, Trypanosoma cruzi; settings: for EC50: read-out: T. cruzi growth EC50, intracellular amastigotes, means ± SD, n = 3; for antiparasitic activity against T. cruzi (in words): amastigotes
[3] = Cytotoxicity for Vero cells; format: cell-based; settings: African green monkey
TgFPPS = TgFPPS enzyme inhibition; format: biochemical, Toxoplasma gondii; settings: read-out: TgFPPS IC50; means ± SD, n = 3
HhFPPS = biological target: T1, HhFPPS (Homo sapiens, UniProt P14324); assay: HhFPPS enzyme inhibition; format: biochemical; settings: read-out: HhFPPS IC50; means ± SD, n = 3
T1 sequence (P14324 67-419 limits assumed): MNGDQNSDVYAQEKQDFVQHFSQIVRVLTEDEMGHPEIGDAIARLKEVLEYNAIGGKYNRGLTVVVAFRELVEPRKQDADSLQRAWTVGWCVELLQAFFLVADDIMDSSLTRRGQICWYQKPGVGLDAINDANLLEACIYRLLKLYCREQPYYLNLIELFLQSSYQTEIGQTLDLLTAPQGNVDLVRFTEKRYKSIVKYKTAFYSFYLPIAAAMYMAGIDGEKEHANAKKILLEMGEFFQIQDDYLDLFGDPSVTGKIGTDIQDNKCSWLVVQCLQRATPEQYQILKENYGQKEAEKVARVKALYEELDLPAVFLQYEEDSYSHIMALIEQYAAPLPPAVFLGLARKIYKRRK

Vero cells = assay: Cytotoxicity for Vero cells; format: cell-based; settings: read-out: Cytotoxicity EC50
TcFPPS = biological target: T2, TcFPPS (Trypanosoma cruzi, UniProt Q8WS26); assay: TcFPPS enzyme inhibition; format: biochemical; settings: read-out: TcFPPS IC50; means ± SD, n = 3
T2 sequence (Q8WS26 1-425): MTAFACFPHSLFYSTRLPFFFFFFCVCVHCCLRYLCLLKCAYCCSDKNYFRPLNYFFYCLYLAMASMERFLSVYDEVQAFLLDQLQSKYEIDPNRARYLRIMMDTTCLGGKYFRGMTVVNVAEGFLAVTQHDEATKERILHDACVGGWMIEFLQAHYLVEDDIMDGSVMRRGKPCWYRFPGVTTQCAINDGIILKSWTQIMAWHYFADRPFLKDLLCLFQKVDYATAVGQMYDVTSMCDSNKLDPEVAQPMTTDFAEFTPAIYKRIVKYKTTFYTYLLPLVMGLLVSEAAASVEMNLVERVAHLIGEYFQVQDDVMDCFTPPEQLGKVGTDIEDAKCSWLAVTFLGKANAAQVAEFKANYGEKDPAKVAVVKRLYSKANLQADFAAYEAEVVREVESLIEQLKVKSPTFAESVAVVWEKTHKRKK

[4] = test system: T. cruzi squalene synthase (TcSQS); settings: cited from earlier work; for IC50: read-out: TcSQS IC50, enzymatic activity of TcSQS
T. gondii (tachyzoites) [5] = settings: read-out: T. gondii growth EC50; cited from earlier work
T. cruzi (amastigotes) [6] = settings: read-out: T. cruzi growth EC50; cited from earlier work
[7] = Toxoplasma gondii, read-out: T. gondii growth EC50, tachyzoites
[8] = read-out: T. gondii growth EC50, tachyzoites

| SMILES | EC50 (T. gondii (tachyzoites) [1]; [7]) | EC50 (T. gondii (tachyzoites) [1]; [8]) | EC50 (T. cruzi (amastigotes) [2]) | EC50 [3] | antiparasitic activity against T. cruzi (in words) (T. cruzi (amastigotes) [2]) | IC50 (TgFPPS) | IC50 (HhFPPS) | other results |
| --- | --- | --- | --- | --- | --- | --- | --- | --- |
| N#CSCCOc1cccc(Oc2ccccc2F)c1 [Compound 20, 3-(2-Fluorophenoxy)phenoxyethyl Thiocyanate] | 3.1 µM | 3.12 ± 0.37 µM | 7.01 ± 0.51 µM | > 60 µM |  |  |  |  |
| N#CSCCOc1cccc(Oc2cccc(F)c2)c1 [Compound 21, 3-(3-Fluorophenoxy)phenoxyethyl Thiocyanate] | 1.6 µM | 1.63 ± 0.36 µM | 5.38 ± 0.82 µM | > 50 µM |  |  |  |  |
| N#CSCCOc1cccc(Oc2ccc(F)cc2)c1 [Compound 22, 3-(4-Fluorophenoxy)phenoxyethyl Thiocyanate] | 4.9 µM | 4.92 ± 1.94 µM | 5.69 ± 0.47 µM | > 55 µM |  |  |  |  |
| N#CSCCOc1ccc(Oc2ccccc2F)cc1 [Compound 27, 4-(2-Fluorophenoxy)phenoxyethyl Thiocyanate] | 4.5 µM | 4.54 ± 0.57 µM |  | > 55 µM | devoid of antiparasitic activity |  |  |  |
| N#CSCCOc1ccc(Oc2ccncc2)cc1 [Compound 31, 4-(4-pyridyl)oxyphenoxyethyl Thiocyanate] | 7.9 µM |  |  | > 200 µM | free of antiparasitic activity |  |  |  |
| O=P(O)(O)C(CNCCOc1ccc(Oc2ccccc2)cc1)P(=O)(O)O [Compound 43, 1-[(4-Phenoxyphenoxyethylamino)ethyl]-1,1-bisphosphonic Acid] |  | 5.9 ± 0.07 µM | > 10 µM |  |  | 0.094 ± 0.02 µM | > 10 µM | EC50 (Vero cells): > 100 µM |
| O=P(O)(O)C(CSCCOc1ccc(Oc2ccccc2)cc1)P(=O)(O)O [Compound 48] |  | > 10 µM | > 20 µM |  |  | 0.362 ± 0.002 µM | > 15 µM | IC50 (TcFPPS): 0.8 ± 0.12 µM; EC50 (Vero cells): > 200 µM |
| O=P(O)(O)C(CNCCOc1cccc(Oc2ccccc2)c1)P(=O)(O)O [Compound 53, 1-[(3-Phenoxyphenoxyethylamino)ethyl]-1,1-bisphosphonic Acid] |  | 2.4 ± 0.7 µM | > 10 µM |  | devoid of activity | 0.04 ± 0.002 µM | > 10 µM | IC50 (TcFPPS): > 10 µM; EC50 (Vero cells): > 50 µM |
| O=P(O)(O)C(CSCCOc1cccc(Oc2ccccc2)c1)P(=O)(O)O [Compound 58, 2-[3-(Phenoxy)phenoxyethylthio]ethyl-1,1-bisphosphonic Acid] |  | 0.67 ± 0.23 µM | > 10 µM |  | devoid of activity | 0.076 ± 0.019 µM | > 10 µM | EC50 (T. gondii (tachyzoites) [1]; read-out: T. gondii growth EC50, tachyzoites, listed as 2-[3-(phenoxy)phenoxyethylthio]ethyl-1,1-bisphosphonate): 0.7 µM; EC50 (Vero cells): > 100 µM |
| O=P(O)(O)C(CNCCOc1ccccc1)P(=O)(O)O [Compound 63, 1-[(Phenoxyethylamino)ethyl]-1,1-bisphosphonic Acid] |  | > 10 µM | > 10 µM |  |  | 0.18 ± 0.015 µM | > 10 µM | IC50 (TcFPPS): 0.32 ± 0.04 µM |
| N#CSCCOc1ccc2ccccc2c1 [Compound 68, 2-(Naphthalen-2-yloxy)ethyl Thiocyanate] | 3.6 µM |  |  |  | vanishing inhibitory action |  |  |  |
| N#CSCCOc1cccc2ccccc12 [Compound 73, 2-(Naphthalen-1-yloxy)ethyl Thiocyanate] | 3.1 µM |  |  | 7.5 µM | vanishing inhibitory action |  |  |  |
| CO[C@@H]1CN(c2ccc(C#C[C@]3(O)CN4CCC3CC4)c(Cc3ccccc3)n2)C[C@@H]1O [Compound E5700] |  |  |  |  |  |  |  | type of inhibition of TcSQS [4]: mixed-type; IC50 [4]: 0.00084 µM |
| COCCCOc1ccc(C#C[C@@]2(O)CN3CCC2CC3)c(Cc2ccccc2)n1 [ER-119884] |  |  |  |  |  |  |  | type of inhibition of TcSQS [4]: non-competitive; IC50 [4]: 0.0035 µM |
| N#CSCCOc1ccc(Oc2ccccc2)cc1 [WC-9, 4-Phenoxyphenoxyethyl thiocyanate] |  |  |  |  |  |  |  | EC50 (T. gondii (tachyzoites) [5]): 4.8 ± 0.41 µM; EC50 (T. cruzi (amastigotes) [6]): 5 ± 1.1 µM; type of inhibition of TcSQS [4]: non-competitive |
